Measurements: patent US9925280B2, “Hyperpolarized amino acids” (BRACCO IMAGING S.P.A., priority 2012, dated 2018)

Experiment: Solubility in anhydrous solvents
Format: physicochemical
Experimental: The above components of the DNP mixture can be admixed according to any suitable technique and methodology known in the art. In a preferred embodiment, the amino acid and the hydroxide are first admixed as dry powders. The powder mixture is then dissolved in the anhydrous solvent, which preferably already contains the polarizing agent dissolved therein. […] Optionally, the DNP mixture may further contain a paramagnetic metal ion, for further increasing the polarisation levels in the compound to be polarised (see e.g. WO 2007/064226 herein incorporated by reference); preferably, the paramagnetic metal ion is in the form of a complex with a chelating agent, such as, for instance DOTA, DO3A, BOPTA or DTPA; preferably the paramagnetic metal ion is a Gadolinium (Gd^3+).

NC(=O)CC[C@H](N)C(=O)O [glutamine]
solubility in anhydrous solvents: very poor solubility
